Laboratory results reported in patent US4528289A, “Corynantheine derivates, processes for their preparation, and their use” (Dr. Willmar Schwabe GmbH & Co., priority 1982, dated 1985).

How the values were obtained:
mice [1] = experiment: body temperature-lowering action on mice after oral administration; format: in vivo; details: 5 to 20 mg/kg, dosage-dependent
mice [2] = experiment: acute toxicity, LD50 (Litchfield and Wilcoxon) on mice; format: in vivo; details: i.v., i.p. and oral LD50, mice
Text: (§1) The toxicity of the compounds according to the present invention can be seen from the LD50 values given in the following Table 8 for intravenous, intraperitoneal and oral administration.

[3] = as above; format: in vivo; details: mouse, in vivo, mice
Text: as §1

[4] = test system: stereotypy brought about by apomorphine; experiment: potentiation of apomorphine stereotypy in mice; format: in vivo; details: oral, 10 to 20 mg/kg
[5] = test system: "head twitch" syndrome caused by 5-hydroxytryptophane; experiment: inhibition of "head twitch" syndrome caused by 5-hydroxytryptophane on mice; format: in vivo; details: concluded from head twitch test
[6] = test system: heart rate of spontaneously hypertonic rats; experiment: heart rate of spontaneously hypertonic rats after oral administration; format: in vivo, rat; details: 2 h, tetrahydrocorynantheine
Text: (§2) The blood pressure-lowering action of the compound THCN according to the present invention and of DHCN was investigated on spontaneously hypertonic rats after oral administration and compared with that of ajmalicine. The method thereby used for the measurement of the systolic blood pressure and of the heart rate on rats is described in Arzneimittel-Forschung, 18, 1285-1287/1968. Before commencement of the experiments, the animals were familiarised with the measurement procedure.
(§3) In a first series of experiments, the systolic blood pressure and the heart rate were investigated 2 hours after the oral administration of the test substances in the form of their hydrochlorides. The substances were suspended in 0.2% agar and administered in a volume of 10 ml./kg. It follows therefrom that all three substances lower the blood pressure in a dosage-dependent manner.

[7] = test system: systolic blood pressure of spontaneously hypertonic rats; experiment: systolic blood pressure of spontaneously hypertonic rats after oral administration; format: in vivo, rat; details: 2 h, tetrahydrocorynantheine
Text: as §2, §3

[8] = stability towards acids and other agents; format: physicochemical
[9] = test system: heart rate of spontaneously hypertonic rats; experiment: chronological course of heart rate of spontaneously hypertonic rats; format: in vivo, rat; parameters: heart rate at time t: unit not given here
Text: as §2
(§4) In a further series of experiments, the chronological course of the blood pressure lowering was investigated. For this purpose, spontaneously hypertonic rats were treated with 10 mg./kg. DHCN and with 5 or 10 mg./kg. THCN per os and in each case 6 or 12 animals of the treated group were measured at definite times after the treatment.

[10] = test system: systolic blood pressure of spontaneously hypertonic rats; experiment: regression analysis of the dosage-activity relationship (blood pressure lowering); format: in vivo, rat; details: compared with DHCN and ajmalicine
Text: as §2, §3
The calculation of the regression lines gives, in all three cases, a statistically significant correlation between dosage and degree of blood pressure lowering (cf. the following Table 4). For ajmalicine, in the case of a dosage of 56 mg./kg., the lowering reached a maximum of about 18%, which could not be exceeded with dosages of up to 100 mg./kg.

[11] = test system: aconitine-induced arrythmias; experiment: protection against aconitine-induced arrhythmias in urethane-narcotised rats, i.v.; format: in vivo; details: 2 to 5 mg/kg (THCN)
Text: (§5) The antiarrhythmic effectiveness of DHCN and THCN was investigated on mice and rats.

[12] = test system: systolic blood pressure of spontaneously hypertonic rats; experiment: chronological course of blood pressure decrease in spontaneously hypertonic rats; format: in vivo, rat
Text: as §2, §4

CHCl3 arrhythmia = experiment: inhibition of CHCl3 arrhythmia on mice, i.p.; format: in vivo
Text: as §5

mice [13] = experiment: sedating action on mice after oral administration; format: in vivo; details: 5 to 20 mg/kg, dosage-dependent

## CC[C@H]1CN2CCc3c([nH]c4ccccc34)[C@@H]2C[C@@H]1C(COC)C(=O)OC (some centres unmarked) [THCN, tetrahydrocorynantheine]
Mice [1]
  body temperature-lowering action (in words): body temperature-lowering action
Mice [2]
  toxicities compared (in words): almost the same
[3]; ip
  LD50: 133 mg/kg
[3]; iv
  LD50: 14.1 mg/kg
[3]; po
  LD50: 283 mg/kg
[4]
  apomorphine stereotypy (in words): potentiated the stereotypy
  central dopaminergic-stimulating property (in words): central dopaminergic-stimulating property
[5]
  central antiserotoninergic action (in words): central antiserotoninergic action
[6]; 5 mg/kg p.o.
  heart rate, subsequent value: 508 ± 7 beats/min.
  heart rate, Δ: 6 ± 12 beats/min.
  heart rate, Δ %: 1.2 ± 7.1%
[6]; 10 mg/kg p.o.
  heart rate, subsequent value: 519 ± 9 beats/min.
  heart rate, Δ: 21 ± 11 beats/min.
  heart rate, Δ %: 4.2 ± 3.3%
[6]; 18 mg/kg p.o.
  heart rate, subsequent value: 495 ± 6 beats/min.
  heart rate, Δ: 13 ± 12 beats/min.
  heart rate, Δ %: 3.3 ± 2.8%
[6]; 30 mg/kg p.o.
  heart rate, subsequent value: 493 ± 10 beats/min.
  heart rate, Δ: 22 ± 27 beats/min.
  heart rate, Δ %: 4.7 ± 6.6%
[6]; 40 mg/kg p.o.
  heart rate, subsequent value: 472 ± 14 beats/min.
  heart rate, Δ: -1 ± 29 beats/min.
  heart rate, Δ %: 1.0 ± 6.6%
[7]; 5 mg/kg p.o.
  systolic blood pressure, subsequent value: 178 ± 4 mm Hg
  systolic blood pressure, Δ: -15 ± 3 mm Hg
  systolic blood pressure, Δ %: -7.7 ± 1.8%
[7]; 10 mg/kg p.o.
  systolic blood pressure, subsequent value: 168 ± 5 mm Hg
  systolic blood pressure, Δ: -28 ± 6 mm Hg
  systolic blood pressure, Δ %: -14.3 ± 4.7%
[7]; 18 mg/kg p.o.
  systolic blood pressure, subsequent value: 165 ± 13 mm Hg
  systolic blood pressure, Δ: -33 ± 11 mm Hg
  systolic blood pressure, Δ %: -16.5 ± 5.8%
[7]; 30 mg/kg p.o.
  systolic blood pressure, subsequent value: 146 ± 5 mm Hg
  systolic blood pressure, Δ: -43 ± 5 mm Hg
  systolic blood pressure, Δ %: -21.9 ± 3.9%
[7]; 40 mg/kg p.o.
  systolic blood pressure, subsequent value: 132 ± 9 mm Hg
  systolic blood pressure, Δ: -74 ± 10 mm Hg
  systolic blood pressure, Δ %: -35.7 ± 4.7%
[8]
  stability compared with dihydrocorynantheine (in words): substantially more stable than dihydrocorynantheine
  stability towards acids and other agents (in words): astonishingly stable towards acids and other agents
[9]; 5 mg/kg p.o., 10 min.
  heart rate at time t: 504
[9]; 5 mg/kg p.o., 20 min.
  heart rate at time t: 492
[9]; 5 mg/kg p.o., 40 min.
  heart rate at time t: 499
[9]; 5 mg/kg p.o., 80 min.
  heart rate at time t: 503
[9]; 5 mg/kg p.o., 2 h.
  heart rate at time t: 508
[9]; 5 mg/kg p.o., 4 h.
  heart rate at time t: 502
[9]; 5 mg/kg p.o., 6 h.
  heart rate at time t: 489
[9]; 10 mg/kg p.o., 10 min.
  heart rate at time t: 519
[9]; 10 mg/kg p.o., 20 min.
  heart rate at time t: 518
[9]; 10 mg/kg p.o., 40 min.
  heart rate at time t: 499
[9]; 10 mg/kg p.o., 80 min.
  heart rate at time t: 520
[9]; 10 mg/kg p.o., 2 h.
  heart rate at time t: 519
[9]; 10 mg/kg p.o., 4 h.
  heart rate at time t: 519
[9]; 10 mg/kg p.o., 6 h.
  heart rate at time t: 503
[9]; DHCN 10 mg/kg, THCN 10 mg/kg, on the border of statistical significance
  heart rate change (in words): an increase is to be observed
[9]; THCN 5 mg/kg
  heart rate change (in words): does not change
[10]
  dosage activity curve (in words): steeper
[10]; higher dosages
  strength of action (in words): stronger in higher dosages
[11]
  antiarrhythmic effectiveness, aconitine-induced arrythmias (in words): protects against aconitine-induced arrythmias
[12]; 5 mg/kg p.o., 10 min.
  percentage decrease of blood pressure: 11.1%
[12]; 5 mg/kg p.o., 20 min.
  percentage decrease of blood pressure: 13.8%
[12]; 5 mg/kg p.o., 40 min.
  percentage decrease of blood pressure: 12.8%
[12]; 5 mg/kg p.o., 80 min.
  percentage decrease of blood pressure: 13.8%
[12]; 5 mg/kg p.o., 2 h.
  percentage decrease of blood pressure: 8.1%
[12]; 5 mg/kg p.o., 4 h.
  percentage decrease of blood pressure: -0.2%
[12]; 5 mg/kg p.o., 6 h.
  percentage decrease of blood pressure: 4.0%
[12]; 10 mg/kg p.o., 10 min.
  percentage decrease of blood pressure: 13.5%
[12]; 10 mg/kg p.o., 20 min.
  percentage decrease of blood pressure: 29.3%
[12]; 10 mg/kg p.o., 40 min.
  percentage decrease of blood pressure: 27.8%
[12]; 10 mg/kg p.o., 80 min.
  percentage decrease of blood pressure: 23.0%
[12]; 10 mg/kg p.o., 2 h.
  percentage decrease of blood pressure: 14.4%
[12]; 10 mg/kg p.o., 4 h.
  percentage decrease of blood pressure: 14.0%
[12]; 10 mg/kg p.o., 6 h.
  percentage decrease of blood pressure: 15.9%
[12]; DHCN 10 mg/kg vs THCN 5 mg/kg p.o.
  blood pressure lowering action compared (in words): the same action
[12]; DHCN 10 mg/kg, THCN 5 mg/kg p.o.
  time of maximum blood pressure lowering: about 40 minutes
[12]; DHCN 10 mg/kg, THCN 5 mg/kg p.o., after about 40 minutes
  blood pressure after the maximum (in words): the blood pressure again increases to the initial value
[12]; THCN 10 mg/kg p.o.
  blood pressure lowering action (in words): a stronger action
  time of maximum blood pressure lowering: 20 min
[12]; THCN 10 mg/kg p.o., 20 minutes after administration
  maximum blood pressure lowering: 30%
[12]; THCN 10 mg/kg p.o., 6 hours
  blood pressure after 6 hours (in words): still distinctly below the initial value
[12]; oral administration
  blood pressure-lowering action compared with ajmalicine (in words): clearly stronger and longer-lasting blood pressure-lowering action
CHCl3 arrhythmia
  antiarrhythmic effectiveness, chloroform arrythmias (in words): dosage-dependently inhibited the arrythmias caused by chloroform
CHCl3 arrhythmia; 10 mg/kg
  inhibition in % of CHCl3 arrhythmia: 10%
CHCl3 arrhythmia; 15 mg/kg
  inhibition in % of CHCl3 arrhythmia: 60%
CHCl3 arrhythmia; 25 mg/kg
  inhibition in % of CHCl3 arrhythmia: 90%
Mice [13]
  sedating action (in words): sedating
